Results as given in US11197893B2, “Pure platelet-rich plasma (P-PRP) composition for treatment of subclinical mastitis and methods of producing and using the same” (Universidad de Caldas, priority 2016, dated 2021).

Columns and labels:
[1] = system: IFN-γ; test: Cytokine concentrations in milk of treated cows (ELISA); type: in vivo
Procedure: Once cows were treated, composite milk samples from both treated groups were collected at days 21 and 22 after treatment for SCC and microbiological analyses. Procedures for SCC and microbiology were previously described. Treatment was repeated in cows that remained positive for major Gram-positive bacteria, receiving the same product used for the first treatment 4 days after collecting the second milk sample. A final milk sampling was conducted on all refractory cases 21 and 22 days after the repeated treatment. Individual cow SCC, including laboratory data and pre- and post-treatment concentration of cytokines (IL-1, IL-2, IL-4, IL-6, IL-8, IFN-γ, and TNF-α), were generated for each milk sample. No more than two treatment attempts per cow were performed and used in the study.
Proteins were analyzed in hemoderivatives and whole milk using commercial ELISA development kits from R&D Systems (Minneapolis, Minn., USA) with the exception of […]. PDGF-BB (Human PDGF-BB DuoSet, DY220), TGF-β1 (Human TGF-β1 DuoSet, DY240E), and PF4 (Human CXCL4/PF4 Duoset, DY795), which were determined using human antibodies. […]

[2] = system: Streptococcus uberis; test: Non-inferiority trial: bacteriological cure, Strep. uberis infections; type: in vivo, cows; conditions: Strep. uberis cases; margin −0.175; 95% CI; FIG. 6
Procedure: (§1) A non-inferiority randomized clinical trial was conducted, following methodology described in Schukken et al., “Noninferiority Trial Comparing a First-Generation Cephalosporin With a Third-Generation Cephalosporin in the Treatment of Nonsevere Clinical Mastitis in Dairy Cows,” J. Dairy Sci. 96(10): 6763-74 (2013). […] Ha: [Rcure(cefquinome)−Rcure(P-PRP)]>−Δ [2] where “Rcure”is the cure risk and “Δ” is the non-inferiority margin. Results were interpreted according to the principles for a non-inferiority trial (Piaggio et al., “Reporting of Noninferiority and Equivalence Randomized Trials: Extension of the CONSORT 2010 Statement,” JAMA 308(24): 2594-604 (2012); Schukken et al. (2013)).
(§2) The milk samples were streaked onto agar plates containing 5% sheep blood and 0.1% esculin. The agar plates were incubated at 37.5° C. and visually inspected at 24 hours and 48 hours for bacterial growth. Morphology and Gram staining were used for initial identification. A catalase test was used to differentiate staphylococci from streptococci, and a coagulase test was performed on catalase-positive cocci to confirm presence of Staphylococcus aureus. Gram-positive and catalase-negative cocci were differentiated by their reaction to the hydrolysis of esculin under ultraviolet light. […]

[3] = Somatic cell count (LnSCC) in milk of treated cows; type: in vivo; conditions: days 21, 22, 47, 48 vs day 0; FIG. 7
Excerpt: Two individual composite milk samples were aseptically collected from each cow during the first visit to the herd in order to select the cows to be treated for subclinical mastitis. These milk samples were refrigerated and submitted to Universidad de Caldas for analysis, with one of the samples being used for analysis of subclinical mastitis using an automated cell counter (FOSSOMATIC, from Foss, Hillerod, Denmark). The subclinical mastitis results were expressed as the natural log (LnSCC), in thousands/mL to normalize the data distribution. […]
Cure was defined at the cow level. […] Cure risk was statistically assessed for initial treatment (samples taken at days 21 and 22) and treatment of refractory cases samples (samples taken at days 47 and 48), independently. […]
The statistical analyses of LnSCC and the milk concentration of IL-1, IL-2, IL-4, IL-6, IL-8, IFN-γ, and TNF-αresults were done using linear regression. […] The linear regression model used was: y=intercept+treatment+herd+parity+LnSCC+error [4] where y corresponds to LnSCC after treatment on days 21 and 47 for cows treated one or two times, respectively, and the milk concentrations of IL-1, IL-2, IL-4, IL-6, IL-8, IFN-γ, and TNF-α, which were measured only at days 0 and 21. […]

[4] = system: Gram-positive major pathogens; test: Non-inferiority randomized clinical trial: bacteriological cure in cows with subclinical mastitis; type: in vivo
Procedure: as §1
The milk samples were streaked onto agar plates containing 5% sheep blood and 0.1% esculin. The agar plates were incubated at 37.5° C. and visually inspected at 24 hours and 48 hours for bacterial growth. Morphology and Gram staining were used for initial identification. A catalase test was used to differentiate staphylococci from streptococci, and a coagulase test was performed on catalase-positive cocci to confirm presence of Staphylococcus aureus. Gram-positive and catalase-negative cocci were differentiated by their reaction to the hydrolysis of esculin under ultraviolet light. The Christie, Atkins, Munch-Petersen (CAMP) test and esculin reaction were used to differentiate Streptococcus agalactiae and Streptococcus dysgalactiae, and esculin reaction and culture in enterococcosel agar (from Becton-Dickinson, Durham, N.C., USA) were used to identify Streptococcus uberis. Their morphology and Gram staining were used to identify Corynebacterium species. Growth in McConckey agar and further biochemical tests, such as citrate, indole, oxidase and motility, were used to identify coliforms. Those cultures that presented more than two bacterial species were considered contaminated and not informative of intramammary infection. […]

[5] = system: Streptococcus agalactiae; test: Non-inferiority trial: bacteriological cure, Strep. agalactiae infections; type: in vivo, cows
Procedure: as §1, §2

In the case of `CO/N=C(\C(=O)N[C@@H]1C(=O)N2C(C(=O)[O-])=C(C[n+]3cccc4c3CCCC4)CS[C@H]12)c1csc(N)n1.O=S(=O)(O)O` [cefquinome sulphate], the “Concentration of IFN-γ in milk, change” value ([1]; by day 47 in cows treated twice) is reported as “increased”, the “Concentration of IFN-γ in milk, comparison between groups” value ([1]; days 0 and 22) is reported as “higher” and the “Risk difference for bacteriological cure, non-inferiority interpretation” value [2] is reported as “better”. For the same compound, the “Change of mean LnSCC in milk after the start of the trial” value [3] was “no differences”, the “Risk difference for bacteriological cure, non-inferiority interpretation” value ([4]; all cases, margin −0.175, 95% CI, FIG. 6) was “better” and the “Overall bacteriological cure, percent of cows” value ([4]; cows with subclinical mastitis, EG n=54, RG n=49) was 71%. For the same compound, the “Overall bacteriological cure, number of cows” value ([4]; cows with subclinical mastitis, intramammary infusion, three consecutive milkings, EG n=54, RG n=49) was 35 cows, the “Risk difference for bacteriological cure, non-inferiority interpretation” value ([5]; Strep. agalactiae cases, margin −0.175, 95% CI, FIG. 6) was “better, although non-inferiority is inconclusive” and the “Cure risk for Strep. agalactiae” value ([5]; in vivo) was 100%.
